In ChEMBL document CHEMBL1772936, “Synthesis and biological activity of novel N6-substituted and 2,N6-disubstituted adenine ribo- and 3'-C-methyl-ribonucleosides as antitumor agents” (Eur J Med Chem, 2011):

How the values were obtained:
MCF7 = assay: Antiproliferative activity against human MCF7 cells after 72 hrs by MTS assay; type: functional; conditions: MCF7, 72 h
Caco-2 = assay: Antiproliferative activity against human Caco2 cells after 72 hrs by MTS assay; type: functional; conditions: Caco-2, 72 h
HeLa = assay: Antiproliferative activity against human HeLa cells after 72 hrs by MTS assay; type: functional
K562 [1] = assay: Antiproliferative activity against human K562 cells after 72 hrs by MTS assay; type: functional; conditions: K562, 72 h
HT-29 = assay: Antiproliferative activity against human HT-29 cells after 72 hrs by MTS assay; type: functional; conditions: HT-29, 72 h
[2] = molecular target: T1, Ribonucleoside-diphosphate reductase RR1 (Homo sapiens) (UniProt P23921+Q7LG56+P31350); assay: (§1) Inhibition of human recombinant ribonucleotide reductase M2/M1 expressed in Escherichia coli BL21 (DE3) after 30 mins by [3H]CDP reduction method
[3] = molecular target: T2, Ribonucleoside-diphosphate reductase RR1 (Homo sapiens, UniProt P23921+P31350+Q7LG56); assay: as §1
T2 sequence (P23921 whole entry): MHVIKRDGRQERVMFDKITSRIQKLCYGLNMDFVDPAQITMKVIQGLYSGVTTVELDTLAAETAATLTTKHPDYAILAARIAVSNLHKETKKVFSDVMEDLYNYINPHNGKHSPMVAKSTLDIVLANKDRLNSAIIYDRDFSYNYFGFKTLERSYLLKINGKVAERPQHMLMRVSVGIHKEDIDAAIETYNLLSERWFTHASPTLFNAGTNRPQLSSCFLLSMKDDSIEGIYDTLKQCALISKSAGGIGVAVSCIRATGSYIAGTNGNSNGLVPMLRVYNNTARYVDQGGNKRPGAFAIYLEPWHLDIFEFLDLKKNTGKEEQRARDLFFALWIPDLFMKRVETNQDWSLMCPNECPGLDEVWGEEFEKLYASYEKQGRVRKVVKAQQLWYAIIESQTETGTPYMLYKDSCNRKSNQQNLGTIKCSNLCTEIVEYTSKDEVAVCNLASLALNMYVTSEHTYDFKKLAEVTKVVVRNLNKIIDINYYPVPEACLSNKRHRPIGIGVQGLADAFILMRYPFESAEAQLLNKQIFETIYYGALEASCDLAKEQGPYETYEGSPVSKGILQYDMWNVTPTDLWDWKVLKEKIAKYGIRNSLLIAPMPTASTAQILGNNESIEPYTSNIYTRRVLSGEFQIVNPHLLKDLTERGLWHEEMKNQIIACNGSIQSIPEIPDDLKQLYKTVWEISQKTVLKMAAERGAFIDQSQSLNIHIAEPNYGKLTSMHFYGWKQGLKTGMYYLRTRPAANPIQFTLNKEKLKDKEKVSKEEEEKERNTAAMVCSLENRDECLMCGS
T2 sequence (Q7LG56 whole entry): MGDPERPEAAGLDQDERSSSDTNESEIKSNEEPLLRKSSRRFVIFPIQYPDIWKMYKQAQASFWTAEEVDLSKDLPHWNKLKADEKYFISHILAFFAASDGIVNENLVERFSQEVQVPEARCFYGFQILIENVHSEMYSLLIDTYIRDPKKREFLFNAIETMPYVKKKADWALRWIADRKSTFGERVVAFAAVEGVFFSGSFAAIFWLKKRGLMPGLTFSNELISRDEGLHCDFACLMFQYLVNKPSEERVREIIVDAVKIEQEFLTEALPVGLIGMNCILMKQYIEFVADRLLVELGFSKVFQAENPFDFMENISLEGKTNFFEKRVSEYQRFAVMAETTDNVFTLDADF
T2 sequence (P31350 whole entry): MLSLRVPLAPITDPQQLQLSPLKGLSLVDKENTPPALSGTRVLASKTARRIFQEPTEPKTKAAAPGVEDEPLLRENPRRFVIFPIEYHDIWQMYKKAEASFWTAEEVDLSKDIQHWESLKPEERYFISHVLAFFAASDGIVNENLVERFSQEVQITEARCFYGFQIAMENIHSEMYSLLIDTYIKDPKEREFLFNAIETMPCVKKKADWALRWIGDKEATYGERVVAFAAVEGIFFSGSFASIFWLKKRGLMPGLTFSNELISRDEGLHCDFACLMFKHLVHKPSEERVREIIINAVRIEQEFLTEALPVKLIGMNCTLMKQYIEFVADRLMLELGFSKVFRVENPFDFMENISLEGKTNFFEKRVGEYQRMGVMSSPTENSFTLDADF

[4] = molecular target: T1, Ribonucleoside-diphosphate reductase RR1 (Homo sapiens); assay: (§2) Inhibition of human recombinant ribonucleotide reductase p53R2/M1 expressed in Escherichia coli BL21 (DE3) after 30 mins by [3H]CDP reduction method
[5] = molecular target: T2, Ribonucleoside-diphosphate reductase RR1; assay: as §2
K562 [6] = assay: Antiproliferative activity against doxorubicin-sensitive human K562 cells after 72 hrs by MTS assay; type: functional; conditions: K562, 72 h, read-out: GI100

| Structure (SMILES) | GI50 (MCF7) | GI50 (Caco-2) | GI50 (HeLa) | GI50 (K562 [1]) | GI50 (HT-29) | inhibition [2] | IC50 [3] | inhibition [4] | IC50 [5] | TGI (MCF7; read-out: GI100) | TGI (Caco-2; read-out: GI100) | TGI (HeLa; read-out: GI100) | TGI (HT-29; read-out: GI100) | TGI (K562 [6]) |
| --- | --- | --- | --- | --- | --- | --- | --- | --- | --- | --- | --- | --- | --- | --- |
| C[C@@]1(O)[C@@H](CO)O[C@@H](n2cnc3c(NN)nc(N)nc32)[C@@H]1O | > 100 µM | > 100 µM | > 100 µM | 91 µM | > 100 µM |  |  |  |  |  |  |  |  |  |
| CONc1ncnc2c1ncn2[C@@H]1O[C@H](CO)[C@@](C)(O)[C@H]1O | > 100 µM | > 100 µM | > 100 µM | > 100 µM | > 100 µM |  |  |  |  |  |  |  |  |  |
| CONc1nc(N)nc2c1ncn2[C@@H]1O[C@H](CO)[C@@](C)(O)[C@H]1O | > 100 µM | > 100 µM | > 100 µM | > 100 µM | > 100 µM |  |  |  |  |  |  |  |  |  |
| C[C@@]1(O)[C@@H](CO)O[C@@H](n2cnc3c(NO)ncnc32)[C@@H]1O | > 100 µM | > 100 µM | > 100 µM | > 100 µM | > 100 µM |  |  |  |  |  |  |  |  |  |
| C[C@@]1(O)[C@@H](CO)O[C@@H](n2cnc3c(NO)nc(N)nc32)[C@@H]1O | > 100 µM | > 100 µM | > 100 µM | 94 µM | > 100 µM |  |  |  |  |  |  |  |  |  |
| NNc1nc(N)nc2c1ncn2[C@@H]1O[C@H](CO)[C@@H](O)[C@H]1O | > 100 µM | > 100 µM | > 100 µM | > 100 µM | > 100 µM |  |  |  |  |  |  |  |  |  |
| CON(C)c1nc(N)nc2c1ncn2[C@@H]1O[C@H](CO)[C@@](C)(O)[C@H]1O | > 100 µM | > 100 µM | > 100 µM | > 100 µM | > 100 µM |  |  |  |  |  |  |  |  |  |
| Nc1nc2c(ncn2[C@@H]2O[C@H](CO)[C@@H](O)[C@H]2O)/c(=N\O)[nH]1 | > 100 µM | > 100 µM | > 100 µM | 99 µM | > 100 µM |  |  |  |  |  |  |  |  |  |
| CO/N=c1/[nH]cnc2c1ncn2[C@@H]1O[C@H](CO)[C@@H](O)[C@H]1O | > 100 µM | > 100 µM | > 100 µM | > 100 µM | > 100 µM |  |  |  |  |  |  |  |  |  |
| CON(C)c1ncnc2c1ncn2[C@@H]1O[C@H](CO)[C@@](C)(O)[C@H]1O | > 100 µM | > 100 µM | > 100 µM | > 100 µM | > 100 µM |  |  |  |  |  |  |  |  |  |

More lines, main results first:

| GI50 (MCF7) | GI50 (Caco-2) | GI50 (HeLa) | GI50 (K562 [1]) | GI50 (HT-29) | inhibition [2] | IC50 [3] | inhibition [4] | IC50 [5] | Structure (SMILES) | TGI (MCF7; read-out: GI100) | TGI (Caco-2; read-out: GI100) | TGI (HeLa; read-out: GI100) | TGI (HT-29; read-out: GI100) | TGI (K562 [6]) |
| --- | --- | --- | --- | --- | --- | --- | --- | --- | --- | --- | --- | --- | --- | --- |
| 20.7 µM | 18.8 µM | 7.9 µM | 30.7 µM | 61.4 µM |  |  |  |  | NNc1nc(NN)c2ncn([C@@H]3O[C@H](CO)[C@@H](O)[C@H]3O)c2n1 |  |  |  |  |  |
| 86.2 µM | > 100 µM | 86 µM | 87.1 µM | 86.2 µM |  |  |  |  | NNc1nc(Cl)nc2c1ncn2[C@@H]1O[C@H](CO)[C@@H](O)[C@H]1O |  |  |  |  |  |
| > 100 µM | > 100 µM | 3.4 µM | 31 µM | 15 µM |  |  |  |  | OC[C@H]1O[C@@H](n2cnc3/c(=N\O)[nH]cnc32)[C@H](O)[C@@H]1O |  |  |  |  |  |
| > 100 µM | > 100 µM | > 100 µM | > 100 µM | > 100 µM |  |  |  |  | C[C@@]1(O)[C@@H](CO)O[C@@H](n2cnc3c(NN)ncnc32)[C@@H]1O |  |  |  |  |  |
| 22.4 µM | 24.3 µM | 23.3 µM | 9.4 µM | 26.1 µM |  |  |  |  | C[C@@]1(O)[C@@H](CO)O[C@@H](n2cnc3c(N)ncnc32)[C@@H]1O |  |  |  |  |  |
| 46.8 µM | 84.1 µM | > 100 µM | > 100 µM | > 100 µM |  |  |  |  | CON(C)c1ncnc2c1ncn2[C@@H]1O[C@H](CO)[C@@H](O)[C@H]1O |  |  |  |  |  |
| 7.9 µM | > 100 µM | 16 µM | 12 µM | 18 µM |  |  |  |  | NNc1ncnc2c1ncn2[C@H]1C[C@H](O)[C@@H](CO)O1 |  |  |  |  |  |
| 0.35 µM | 1.03 µM | 0.52 µM | 0.61 µM | 1.44 µM | Dose-dependent effect | 232 µM | Dose-dependent effect | 244 µM | NNc1ncnc2c1ncn2[C@@H]1O[C@H](CO)[C@@H](O)[C@H]1O | 6.1 µM | 5 µM | 5 µM | 8.2 µM | 2 µM |
| 58 µM | > 100 µM | > 100 µM | 49 µM | > 100 µM |  |  |  |  | CO/N=c1/[nH]c(N)nc2c1ncn2[C@@H]1O[C@H](CO)[C@@H](O)[C@H]1O |  |  |  |  |  |
